Results taken from publication PMC10713593, “Staphylococcus aureus functional amyloids catalyze degradation of β-lactam antibiotics” (Nature Communications, 2023).
Where no end group is shown, it is not given here.

Columns and labels:
[1] = Nitrocefin hydrolysis kinetics (absorbance of degraded nitrocefin at 480 nm; initial rates V0, Michaelis-Menten fit); assay type: biochemical; settings: peptide 170 µM; for nitrocefin substrate degradation after two hours: initial nitrocefin 107 µM (Fig. 4b)
Description: Nitrocefin, a β-lactam widely used as a surrogate substrate of Penicillin in β-lactamase activity assay, was used as a substrate. NC degradation was monitored for 2 h. Nitrocefin stock solution was dissolved in acetonitrile (20 mM) and then diluted with Hepes buffer (50 mM, pH 7.4) to nitrocefin concentration of 360 µM (further dilutions to lower concentrations were made with the 360 µM NC stock). All nitrocefin samples were kept on ice in cold conditions and any further dilution or mixing was performed in ice-cold conditions to avoid self-hydrolysis background reaction. […] Immediately after mixing the samples, the plate was transferred to 20̊ °C pre-cooled plate reader (Multiskan GO, Thermo Scientific, Waltham, MA) and shaken slowly for 10 s. Then, the absorbance of degraded nitrocefin was measured for 2 h at interval of 20 s at λ = 480 nm. Initial production rates (V0) were calculated by slope of the initial linear range of degraded-nitrocefin production at the first 15 min. The reported results are and average of at least five separate measurements (the exact number of repeats, N, is reported next to the values). Each experiment also included blank samples of nitrocefin substrate diluted with buffer instead of PSMα. […] The initial rate calculations were performed while also subtracting the self-degradation of the substrate, to ensure that this product absorbance is a result of PSMα presence.
The initial rates of degraded-nitrocefin production were calculated from the slopes of the first 15 min of measurement as reported above. The initial rates (V0) were fitted using non-linear regression applied with the solver function in excel, either to Michalis–Menten equation V=Vmax.[S]/(KM+S) Where Vmax. Stands for maximal reaction rate, KM stands for Michalis–Menten constant, [S] stands for the substrate molar concentration. Each initial rate value was presented as average ± SEM. The kinetic parameters were calculated by fitting the data to MM model using non-linear regression, and the confidence intervals for each parameter were calculated accordingly.

[2] = target: PSMα3 fibrils (Staphylococcus aureus, UniProt A9JX07); experiment: LC-MS degradation of amoxicillin and penicillin G with PSMα3 fibrils or buffer; assay type: biochemical; settings: for Degraded Penicillin G (PSMa3) (percentage of LC peaks, hydrolyzed product) / Penicillin G (PSMa3) (percentage of LC peaks, parent compound) / Degraded Penicillin G (percentage of LC peaks, hydrolyzed product) / Penicillin G (percentage of LC peaks, parent compound): Hepes 50 mM pH 7.4, penicillin G 40 µM, LC-MS; for Degraded Penicillin G (percentage of LC peaks, hydrolyzed product) / Penicillin G (percentage of LC peaks, parent compound): buffer control
Description: Amoxicillin or Penicillin solutions were dissolved in Hepes buffer (50 mM, pH 7.4) in concentration of 50 µM. PSMα3 solution in concentration of 1.54 mM was dissolved in DIW and Hepes buffer was added to the final concentration of 50 mM. The antibiotics’ solutions and preincubated PSMα3 solutions were mixed to final PSMα3 […] 180 µL organic solvent to stop the reaction (acetonitrile for Amoxicillin, methanol in the case of Penicillin). The samples were collected and injected sequentially into the LC-MS analysis.
Waters ACQUITY UPLC I-Class PLUS System coupled with high-resolution Thermo Orbitrap Exploris 240 mass-spectrometer were used for analysis of Amoxicillin and Penicillin-G over time. 1 µL of each sample was injected into the reverse-phase Acquity UPLC BEH C18 1.7 µm, 2.1 × 50 mm column (Waters) and run under a gradient program (Table S2 for Amoxicillin, Table S3 for Penicillin-G). The samples were ionized using soft electrospray ionization in positive mode and detected in a full scan mode in range from 60 to 900 m/z with a resolution of 240,000 Full Width at Half Maximum. MS was tuned according to the manufacture recommendations. Relative abundance of the intact/degraded compounds was calculated by peak area of the extracted ion chromatogram: for Amoxicillin 366.1–366.12, and degraded-Amoxicillin 384.1–384.13 m/z, Penicillin-G 335.1–335.12, for degraded-Penicillin-G 353.1–353.12, for (Figs. S13 and S14, respectively).

PSMα3 fibrils, sequence (A9JX07 whole entry, looked up): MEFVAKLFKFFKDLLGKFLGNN

CSCC[C@H](NC(C)=O)C(=O)N[C@@H](CCC(=O)O)C(=O)N[C@@H](Cc1ccccc1)C(=O)N[C@H](C(=O)N[C@@H](C)C(=O)N[C@@H](CCCCN)C(=O)N[C@@H](CC(C)C)C(=O)N[C@@H](Cc1ccccc1)C(=O)N[C@@H](CCCCN)C(=O)N[C@@H](Cc1ccccc1)C(=O)N[C@@H](Cc1ccccc1)C(=O)N[C@@H](CCCCN)C(=O)N[C@@H](CC(=O)O)C(=O)N[C@@H](CC(C)C)C(=O)N[C@@H](CC(C)C)C(=O)NCC(=O)N[C@@H](CCCCN)C(=O)N[C@@H](Cc1ccccc1)C(=O)N[C@@H](CC(C)C)C(=O)NCC(=O)N[C@@H](CC(N)=O)C(=O)N[C@@H](CC(N)=O)C(=O)O)C(C)C [α3-N.Ac.]
nitrocefin substrate degradation after two hours [1]: minimal degradation

CC1(C)S[C@@H]2[C@H](NC(=O)Cc3ccccc3)C(=O)N2[C@H]1C(=O)O [Penicillin G]
Degraded Penicillin G (PSMa3) (percentage of LC peaks, hydrolyzed product) ([2]; PSMα3 fibrils 308 µM, 0h): 14.1576% | Penicillin G (PSMa3) (percentage of LC peaks, parent compound) ([2]; PSMα3 fibrils 308 µM, 0h): 85.8424% | Degraded Penicillin G (PSMa3) (percentage of LC peaks, hydrolyzed product) ([2]; PSMα3 fibrils 308 µM, 2h): 11.4487% | Penicillin G (PSMa3) (percentage of LC peaks, parent compound) ([2]; PSMα3 fibrils 308 µM, 2h): 88.5513% | Degraded Penicillin G (PSMa3) (percentage of LC peaks, hydrolyzed product) ([2]; PSMα3 fibrils 308 µM, 4h): 13.5281% | Penicillin G (PSMa3) (percentage of LC peaks, parent compound) ([2]; PSMα3 fibrils 308 µM, 4h): 86.4719% | Degraded Penicillin G (PSMa3) (percentage of LC peaks, hydrolyzed product) ([2]; PSMα3 fibrils 308 µM, 8h): 13.7177% | Penicillin G (PSMa3) (percentage of LC peaks, parent compound) ([2]; PSMα3 fibrils 308 µM, 8h): 86.2823% | Degraded Penicillin G (PSMa3) (percentage of LC peaks, hydrolyzed product) ([2]; PSMα3 fibrils 308 µM, 12h): 18.21% | Penicillin G (PSMa3) (percentage of LC peaks, parent compound) ([2]; PSMα3 fibrils 308 µM, 12h): 81.79% | Degraded Penicillin G (PSMa3) (percentage of LC peaks, hydrolyzed product) ([2]; PSMα3 fibrils 308 µM, 24h): 37.9475% | Penicillin G (PSMa3) (percentage of LC peaks, parent compound) ([2]; PSMα3 fibrils 308 µM, 24h): 62.0525% | Degraded Penicillin G (PSMa3) (percentage of LC peaks, hydrolyzed product) ([2]; PSMα3 fibrils 308 µM, 48h): 86.3947% | Penicillin G (PSMa3) (percentage of LC peaks, parent compound) ([2]; PSMα3 fibrils 308 µM, 48h): 13.6053% | Degraded Penicillin G (PSMa3) (percentage of LC peaks, hydrolyzed product) ([2]; PSMα3 fibrils 308 µM, 60h): 96.085% | Penicillin G (PSMa3) (percentage of LC peaks, parent compound) ([2]; PSMα3 fibrils 308 µM, 60h): 3.915% | Degraded Penicillin G (PSMa3) (percentage of LC peaks, hydrolyzed product) ([2]; PSMα3 fibrils 308 µM, 72h): 99.5055% | Penicillin G (PSMa3) (percentage of LC peaks, parent compound) ([2]; PSMα3 fibrils 308 µM, 72h): 0.4945% | hydrolysis by PSMα3 fibrils versus spontaneous degradation ([2]; antibiotic 40 µM, PSMα3 fibrils 308 µM, Hepes 50 mM pH 7.4, LC-MS (Fig. 6)): significantly higher extent compared to the spontaneous degradation | Degraded Penicillin G (percentage of LC peaks, hydrolyzed product) ([2]; 0h): 11.7847% | Penicillin G (percentage of LC peaks, parent compound) ([2]; 0h): 88.2153% | Degraded Penicillin G (percentage of LC peaks, hydrolyzed product) ([2]; 2h): 11.7612% | Penicillin G (percentage of LC peaks, parent compound) ([2]; 2h): 88.2388% | Degraded Penicillin G (percentage of LC peaks, hydrolyzed product) ([2]; 4h): 11.6984% | Penicillin G (percentage of LC peaks, parent compound) ([2]; 4h): 88.3016% | Degraded Penicillin G (percentage of LC peaks, hydrolyzed product) ([2]; 8h): 11.6907% | Penicillin G (percentage of LC peaks, parent compound) ([2]; 8h): 88.3093% | Degraded Penicillin G (percentage of LC peaks, hydrolyzed product) ([2]; 12h): 15.4738% | Penicillin G (percentage of LC peaks, parent compound) ([2]; 12h): 84.5262% | Degraded Penicillin G (percentage of LC peaks, hydrolyzed product) ([2]; 24h): 23.4015% | Penicillin G (percentage of LC peaks, parent compound) ([2]; 24h): 76.5985% | Degraded Penicillin G (percentage of LC peaks, hydrolyzed product) ([2]; 48h): 37.4339% | Penicillin G (percentage of LC peaks, parent compound) ([2]; 48h): 62.5661% | Degraded Penicillin G (percentage of LC peaks, hydrolyzed product) ([2]; 60h): 42.5642% | Penicillin G (percentage of LC peaks, parent compound) ([2]; 60h): 57.4358% | Degraded Penicillin G (percentage of LC peaks, hydrolyzed product) ([2]; 72h): 42.8604% | Penicillin G (percentage of LC peaks, parent compound) ([2]; 72h): 57.1396%

MEFVAKLFKFFADLLGKFLGNN [α3-K12A]
nitrocefin substrate degradation after two hours [1]: 70%

MEFVAKLFAFFKDLLGKFLGNN [α3-K9A]
nitrocefin substrate degradation after two hours [1]: minimal degradation

MEFVAKLFKPFKDLLGKFLGNN [α3-F10P]
initial rate of nitrocefin degradation reaction (V0) ([1]; initial nitrocefin 107 µM, Hepes 50 mM pH 7.4, 20 °C, first 15 min (Fig. 3f)): lower than 15 µM/h

CSCC[C@H](N)C(=O)N[C@@H](CCC(=O)O)C(=O)N[C@@H](Cc1ccccc1)C(=O)N[C@H](C(=O)N[C@@H](C)C(=O)N[C@@H](CCCCN)C(=O)N[C@@H](CC(C)C)C(=O)N[C@@H](Cc1ccccc1)C(=O)N[C@@H](CCCCN)C(=O)N[C@@H](Cc1ccccc1)C(=O)N[C@@H](Cc1ccccc1)C(=O)N[C@@H](CCCCN)C(=O)N[C@@H](CC(=O)O)C(=O)N[C@@H](CC(C)C)C(=O)N[C@@H](CC(C)C)C(=O)NCC(=O)N[C@@H](C)C(=O)N[C@@H](Cc1ccccc1)C(=O)N[C@@H](CC(C)C)C(=O)NCC(=O)N[C@@H](CC(N)=O)C(=O)N[C@@H](CC(N)=O)C(=O)O)C(C)C [α3-K17A]
nitrocefin substrate degradation after two hours [1]: minimal degradation

MEFVAALFKFFKDLLGKFLGNN [α3-K6A]
nitrocefin substrate degradation after two hours [1]: minimal degradation
